Measurements: patent US6897019B1, “Methods for treating and preventing insulin resistance and related disorders” (priority 1998, dated 2005)
Entries after “also recorded” stand apart in the source; their conditions may differ.

Key:
3T3-L1 adipocytes [1] = test: Lipolysis (glycerol in culture medium) of 3T3-L1 adipocytes with or without TNF-α; type: cell-based, Mouse; details: for reduction of the increase in glycerol release associated with TNF-α: then 24 hours TNF-α plus BRL 1 μM
Method: 3T3-L1 adipocytes used in this example were obtained from 3T3-L1 fibroblasts as follows. 3T3-L1 fibroblasts (ATCC Deposit NO. CL-173, described in U.S. Pat. No. 4,003,789) were cultured in Dulbecco's Modified Eagle's Medium (DMEM) containing 10% bovine calf serum, and induced to differentiate into adipocytes using standard protocols, as described, e.g., in Kohanski et al. (1996) J. Biol. Chem. 261:12272. Adipocytes were used 10-15 days after the differentiation protocol was initiated.
(§1) Differentiated 3T3-L1 adipocytes cultured in 12 well plates were incubated overnight in DMEM+0.5% BSA in the absence of serum. The following morning, the cells were incubated in the presence or absence of 2 mM or 20 mM sodium salicylate (NaSal) and treated with recombinant murine TNF-α (m TNF-α; Genzyme; Cambridge, Mass.) with or without 17 μM 15-deoxy-^12,14-PGJ2 (“PGJ2”; Cayman Chemical; Ann Arbor, Mich.) or 10 μM BRL 49653 (“BRL”; Smith Kine Beecham (Hamish Ross) (King of Prussia, Pa.)) for 24 hours. The glycerol content in the culture medium was determined using a colorimetric assay (GPO-Trinder, Sigma, St Louis, […].). Protein content was determined using the BCA (bicinchonic acid) protein assay (Pierce, Rockford, Ill.). The results are indicated as nmol glycerol per mg protein.
Accordingly, 3T3-L1 adipocytes were treated with BRL at 10 μM, 1 μM or 1 nM and TNF-α as described above, and the amount of glycerol was determined after 24 hours.
3T3-L1 adipocytes were treated with TNF-α (2 or 10 ng/ml), TNF-α plus BRL at 10 μM, TNF-α plus PGJ2 at 15 μM, or BRL or PGJ2 alone for 5 days. The media was replaced everyday and collected on day 5 to measure accumulation of glycerol.
[…] The glycerol content in the culture medium was determined as described above.
3T3-L1 adipocytes prepared as described in Example 1 were preincubated with various amounts (0-50 μM) of the p38 kinase inhibitor SB203580 and then treated with 10 ng/ml TNF-α for 24 hours and the amount of glycerol in the culture medium determined as described above. […]

3T3-L1 adipocytes [2] = test: TNF-α induced FFA release from 3T3-L1 adipocytes (NEFA-C colorimetric kit); type: cell-based, Mouse; details: 24 hours
Method: as §1
In this example, cells were treated for 24 hours as described above, and FFA levels in the culture medium were determined using a colorimetric kit (NEFA-C, WAKO Pure Chemicals, Osaka, Japan).

ERK1/2 = test: ERK 1/2 kinase assay (MBP substrate) on extracts of treated 3T3-L1 adipocytes; type: cell-based, Mouse
Method: In this example, 3T3-L1 cells were treated as described in Example 2, and cell extracts were used in an ERK 1/2 kinase assay, using MBP (myelin basic protein) as a substrate. The assay used is described in Boulton et al. (1991) Cell Reg. 2: 357.
(§2) 3T3-L1 adipocytes prepared as described in Example 1 were pretreated for 3 hours with or without 20 mM NaSal or 100 μM PD98059 and then treated for 15 minutes with or without 10 ng/ml mTNF-α and with or without 10 μM BRL. Cell extracts were then prepared and used in ERK 1/2 kinase and JNK-1 kinase assays, as described above.
(§3) 3T3-L1 cells were pretreated for 3 days with 17 μM of PGJ2 and then for 15 minutes with 10 ng/ml TNF-α. The amount of phosphorylated (thus activated) JNK-1, ERK1/2, and p38 was determined by Western blot using an antibody specifically recognizing phosphorylated forms of the proteins. As a control, the total amount of JNK-1, ERK1/2 and p38 protein was determined by Western blot using an antibody recognizing the phosphorylated and non phosphorylated forms of the protein. The activity of ERK1/2 and JNK kinases was also determined in a kinase assay using MBP and a portion of c-jun, respectively, as substrate.

human adipocytes = test: TNF-α induced lipolysis in primary cultures of human adipocytes; type: cell-based; details: PD98059 72 hours pretreatment, then 24 hours 100 ng/ml human TNF-α
Method: Similar results were also obtained using primary cultures of human adipocytes. Primary cultures of human adipocytes, obtained from Zen-Bio were pretreated for 72 hours with PD98059 and then for 24 hours with 100 ng/ml of human TNF-α.

JNK-1 = JNK-1 kinase assay (c-jun substrate) on extracts of treated 3T3-L1 adipocytes; type: cell-based, Mouse; details: 3 hours pretreatment with 20 mM NaSal or 100 μM PD98059, then 15 minutes 10 ng/ml TNF-α
Method: 3T3-L1 adipocytes were pretreated for 3 hours with or without 20 mM NaSal, with or without 100 μM MAP kinase kinase (MEK) inhibitor PD98059 (Biomol; Cat. No. EI-360) and then for 15 minutes with 10 ng/ml mTNF-α. JNK-1 kinase assays were then performed with extracts of each of these cell cultures on an N-terminal portion of c-jun, as described in Derjarde et al. (1994) Cell 76: 1025.
as §2, §3

JNK = details: FS4 fibroblasts; Schwenger et al. 1997; cited from earlier work
p42/1p44 MAP kinases = details: FS4 fibroblasts; Schwenger et al. 1996; cited from earlier work
[3] = PD98059, pretreatment for 3 hours

C[S+]([O-])c1ccc(-c2nc(-c3ccncc3)c(-c3ccc(F)cc3)[nH]2)cc1 (stereo not drawn) [SB203580]
release of glycerol from the adipocytes (3T3-L1 adipocytes [1]; SB203580 0-50 μM preincubation, then 10 ng/ml TNF-α 24 hours): increases the release of glycerol | concentration up to which glycerol release is proportional to the amount added (3T3-L1 adipocytes [1]; SB203580, 10 ng/ml TNF-α 24 hours): ≤ 20 µM

CN(CCOc1ccc(CC2SC(=O)NC2=O)cc1)c1ccccn1 (stereo not drawn) [BRL, rosiglitazone]
reduction of the increase in glycerol release associated with TNF-α (3T3-L1 adipocytes [1]; 24 hour pretreatment with TNF-α 2 ng/ml): about 65% | reduction of the increase in glycerol release associated with TNF-α (3T3-L1 adipocytes [1]; 24 hour pretreatment with TNF-α 10 ng/ml): about 50% | inhibition of basal lipolysis (3T3-L1 adipocytes [1]; 72 hour pretreatment with BRL, no TNF-α): approximately 30% | blocked share of the increase in glycerol release due to TNF-α (3T3-L1 adipocytes [1]; 5 days, BRL 10 μM or PGJ2 15 μM, TNF-α 2 or 10 ng/ml, last 24 hours): about 100% | inhibition of TNF-α induced lipolysis (3T3-L1 adipocytes [1]; BRL, Example 6 (72 hour pretreatment context)): > 90% | earliest time point at which the effect of TNF-α on glycerol release began to reverse (3T3-L1 adipocytes [1]; after addition of BRL to TNF-α pretreated cells): 6 h | effect on FFA release (3T3-L1 adipocytes [2]; BRL alone, no TNF-α): no effect | reduction of TNF-α induced FFA release (3T3-L1 adipocytes [2]; BRL, 10 ng/ml TNF-α): about 90% | reduction in activation of ERK, factor (ERK1/2; 72 hour pretreatment with 5 μM BRL, then TNF-α 10 ng/ml 15 minutes in the presence of BRL): about 2.5 factor

COc1cccc(-c2cc(=O)c3ccccc3o2)c1N [PD98059]
decrease of TNF-α induced lipolysis, factor (3T3-L1 adipocytes [1]; 100 μM PD98059, 24 hours pretreatment, then TNF-α 24 hours): less than 2 factor | reduction of TNF-α induced lipolysis (3T3-L1 adipocytes [1]; [3]): about 76% | reduction of TNF-α induced lipolysis, factor (3T3-L1 adipocytes [1]; [3]): about 3 factor | increase of MBP phosphorylation in the presence of TNF-α and inhibitor, factor (ERK1/2; 100 μM PD98059 3 hours, then 15 minutes 10 ng/ml TNF-α): less than two | inhibition of MAP kinase activation (ERK1/2; 100 μM PD98059 (Example 6, FIG. 6)): at least 90% | TNF-α induced ERK1/2 activation (kinase activity) (ERK1/2; 3 hours pretreatment with 20 mM NaSal or 100 μM PD98059, then 15 minutes 10 ng/ml TNF-α): inhibited | TNF-α induced lipolysis in human cells (human adipocytes): reduced

O=C([O-])c1ccccc1O.[Na+] [NaSal, sodium salicylate]
ability of TNF-α to increase lipolysis (3T3-L1 adipocytes [1]; 2 mM NaSal): partially reduced | inhibition of glycerol production, factor (3T3-L1 adipocytes [1]; 2 mM NaSal, induced by 10 ng/ml TNF-α, 24 hours): ~2 factor | ability of TNF-α to increase lipolysis (3T3-L1 adipocytes [1]; 20 mM NaSal): completely blocked | inhibition of TNF-α induced lipolysis (3T3-L1 adipocytes [1]; 2 or 20 mM NaSal, TNF-α 2 ng/ml (Panel A) or 20 ng/ml (Panel B), 24 hours): significantly inhibited | inhibition of glycerol production, factor (3T3-L1 adipocytes [1]; induced by 2 ng/ml TNF-α, NaSal 2 or 20 mM, 24 hours): 3-4 factor | TNF-α induced JNK-1 activation (kinase activity) (JNK-1): significantly reduced; also recorded: decreases | inhibition of ERK1/2 activation (ERK1/2; 20 mM NaSal 3 hours, then 15 minutes 10 ng/ml TNF-α): about two | inhibition of TNF-induced activation of JNK (JNK): capable of inhibiting | inhibition of TNF-induced activation of p42/1p44 MAP kinases (p42/1p44 MAP kinases): capable of inhibiting
